Laboratory results from patent US10174067B2, “Type of cytidine derivative and application thereof” (priority 2014, dated 2019).
Marks after values point to notes of the source that are not given here.

How the values were obtained:
ICR mice = experiment: in vivo; conditions: female ICR mice; single-dose ip
Experimental: This experiment was to investigate the toxic effects of single-dose intraperitoneal administration on ICR mice and determine the maximum tolerated dose (MTD) of each subject. Maximum tolerated dose (MTD) refers to the dose that may not cause an animal to die, may not cause the animal to suffer weight loss exceeding 10% (compared with Day 0), or may not produce significant side effects.
(§1) The corresponding amount of test substance was taken in a 5 mL glass tube and dissolved in ethanol with a 5 mm magnetic stirrer for stirring. After dissolving completely, Cremophor EL was added with continuous stirring. The marked amount of saline was added and mixed evenly before use. The volume ratio of ethanol, Cremophor EL, and physiological saline was 5:5:90.
Varieties and lines: ICR mice; level: SPF; sex: female.
Method of administration: ip. The dose was reduced in case of animal death, till an animal survived; the dose was increased in case of no animal death; the test was ended when the animals survived normally at the given high dose. Finally, the MTD of the mice on the test substances was determined according to the test results. The animals were observed continuously for 7 days after acute administration.
During the experiment, all animals were under detailed and continuous clinical observation for […], twice a day (10:00 am, 16:00 pm) after administration. The observation included but not limited to: skin, hair, ear, nose, mouth, chest, abdomen, external genitalia, limbs and feet, respiratory and circulatory system, autonomic effects (such as salivation), nervous system (such as tremor, convulsions, stress response and abnormal behavior).
The body of animals was weighed before administration, and then weighed and recorded at the same time each day.
The observation results, animal body weight, and animal survival after one week of administration were recorded in detail every day.

[1] = tested on: HCT-116 colon cancer xenografts; experiment: Tumor growth inhibition of HCT-116 colon cancer xenografts in tumor-bearing nude mice (tumor volume, TGI %, RTV, T/C %); assay type: in vivo, Balb/c Nude mice
Experimental: 4.1 Tumor cells: colon cancer HCT-116 cells, purchased from the Institute of Cell Biology, Chinese Academy of Sciences. The cells were incubated by F-12 medium (containing 10% FBS) in carbon dioxide incubator at 37° C. and in saturated humidity, with 5% CO2 and 95% air in volume fraction. Before inoculation, the cells at logarithmic phase were taken, and digested with 0.25% trypsin, washed once with PBS and resuspended in PBS for counting. The cells were resuspended in serum-free medium and adjusted to about 3×10^7 cell/mL.
The grouping is as follows:
The formations of tumor at the inoculation site of each group of nude mice were observed. The diameter of tumor nodule (D) was measured three times a week with round hole ruler, and the volume of tumor nodule (V) was calculated according to the following formula: […].
Anti-tumor activity was evaluated by tumor growth inhibition rate TGI (%) and relative tumor proliferation rate T/C (%).
The relative tumor volume (RTV) was calculated as: RTV=Vt/V0, where V0 was the tumor volume when they were grouped and administered, and Vt was the tumor volume at the time of measurement.
The relative proliferation rate T/C (%) was calculated as: […].
TRTV: RTV of the treatment group; CRTV: RTV of the control group.
P<0.05 was considered as significant difference.

[2] = Experimental: To determine the growth inhibition effect and toxicity of the cytidine derivative samples of the present invention on the transplanted tumor of nude mice bearing colon cancer HCT-116.
as §1
Varieties and lines; Balb/c Nude mice; level: SPF; sex: female.
4.2 Animal inoculation and grouping: Each nude mouse was inoculated subcutaneously with 0.1 mL of cell suspension (3×10^6 cell/mouse) at right side of hind limb in a sterile stale. When the tumor grew to about 60-150 mm^3, the nude mice with similar tumor volume and desirable shape were selected (it would be better to select single spherical shape, no irregular shape or multiple tumors grouped together) for grouping, 6 mice a group. The grouping is as follows:
The control group, namely the model control group, was injected with a mixture of ethanol, Cremophor EL, and saline (5:5:90).
Those mice were weighed three times a week.
All clinical symptoms of each animal should be recorded at the beginning of the test and during the test. The observations should be made at the same time each day.
An animal would be killed by CO2 when its weight loss was more than 20%, when it was about to die, or when its tumor volume exceeded 2800 mm^3. The tumor was separated and weighed, and the animal was autopsied and observed to evaluate and record whether there were pathological changes in the organs.
The data were expressed as Mean±SEM unless specially provided; Non-pairing T test was performed for the data between the two groups. P<0.05 was considered as significant difference.

[3] = Day 0, G3-G9 groups, single IP dose, Mean±SEM
[4] = Day 4, G3-G9 groups, single IP dose, Mean±SEM
[5] = Day 6, G3-G9 groups, single IP dose, Mean±SEM
[6] = Day 8, G3-G9 groups, single IP dose, Mean±SEM
[7] = Day 11, G3-G9 groups, single IP dose, Mean±SEM
[8] = Day 13, G3-G9 groups, single IP dose, Mean±SEM
[9] = Day 15, G3-G9 groups, single IP dose, Mean±SEM
[10] = Day 18, G3-G9 groups, single IP dose, Mean±SEM
[11] = Day 20, G3-G9 groups, single IP dose, Mean±SEM
[12] = Day 22, G3-G9 groups, single IP dose, Mean±SEM

O=C(Nc1ccn([C@@H]2O[C@H](CO)[C@@H](O)C2(F)F)c(=O)n1)OCc1ccc([N+](=O)[O-])cc1 [Compound G5, 4-N-(4-nitrocarboxybenzyl)-2′-deoxy-2′,2′-difluorocytidine]
dose that could be tolerated (maximum tolerated dose, MTD) (ICR mice): 300 mg/kg
Day 0 (RTV) [1, 3]: 1.00 ± 0.00
Tumor volume, Day 0 [1, 3]: 65.68 ± 20.50** mm^3
Day 4 (TGI %) ([1]; Day 4, G3-G9 groups, single IP dose): 77.08%
Day 4 (RTV) [1, 4]: 0.89 ± 0.17
Tumor volume, Day 4 [1, 4]: 61.06 ± 22.28** mm^3
Day 6 (TGI %) ([1]; Day 6, G3-G9 groups, single IP dose): 90.77%
Day 6 (RTV) [1, 5]: 0.62 ± 0.08
Tumor volume, Day 6 [1, 5]: 39.01 ± 12.19** mm^3
Day 8 (TGI %) ([1]; Day 8, G3-G9 groups, single IP dose): 93.03%
Day 8 (RTV) [1, 6]: 0.53 ± 0.06
Tumor volume, Day 8 [1, 6]: 36.63 ± 13.03** mm^3
tumor inhibition effect ([1]; Day 8 to Day 13 after single-dose intraperitoneal administration): good tumor inhibition effect
Day 11 (TGI %) ([1]; Day 11, G3-G9 groups, single IP dose): 94.46%
Day 11 (RTV) [1, 7]: 0.60 ± 0.08
Tumor volume, Day 11 [1, 7]: 44.57 ± 18.01** mm^3
Day 13 (TGI %) ([1]; Day 13, G3-G9 groups, single IP dose): 93.46%
Day 13 (RTV) [1, 8]: 1.04 ± 0.14
Tumor volume, Day 13 [1, 8]: 75.90 ± 28.06** mm^3
Day 15 (TGI %) ([1]; Day 15, G3-G9 groups, single IP dose): 90.78%
Day 15 (RTV) [1, 9]: 1.91 ± 0.35
Tumor volume, Day 15 [1, 9]: 130.29 ± 45.17** mm^3
Day 18 (TGI %) ([1]; Day 18, G3-G9 groups, single IP dose): 87.26%
Day 18 (RTV) [1, 10]: 3.76 ± 0.64
Tumor volume, Day 18 [1, 10]: 235.85 ± 70.86** mm^3
Day 20 (TGI %) ([1]; Day 20, G3-G9 groups, single IP dose): 80.09%
Day 20 (RTV) [1, 11]: 8.51 ± 3.10
Tumor volume, Day 20 [1, 11]: 421.94 ± 104.20** mm^3
Day 22 (TGI %) ([1]; Day 22, G3-G9 groups, single IP dose): 74.55%
Day 22 (RTV) [1, 12]: 13.37 ± 4.65
Tumor volume, Day 22 [1, 12]: 665.68 ± 158.57** mm^3
T/C % on Day 22 ([1]; Day 22, G4 350 mg/kg, G5 325 mg/kg, G7 250 mg/kg, single IP): 68.77%
relative tumor volume compared with the model control group ([1]; G4 and G5 Day 4 to Day 18, G7 Day 4 to Day 15 (p<0.05-0.01), G9 only Day 4 (p<0.05)): reduced significantly
maximum value of TGI % ([1]; day of maximum: G3 Day 8, G4 Day 11, G5 Day 11, G9 Day 4, G7 Day 8, single IP): 94.46%
minimum value of T/C % ([1]; day of minimum: G4 Day 13, G5 Day 11, G7 Day 8, single IP): 10.01%
Weight change rate, Day 0 [2, 3]: 0.00 ± 0.00%
Weight of mice, Day 0 [2, 3]: 21.03 ± 0.47 g
weights of animals on Day 4 after administration ([2]; Day 4 (G7: Day 4 and Day 6), p<0.05): significantly reduced
Weight change rate, Day 4 [2, 4]: −8.40 ± 2.65 %
Weight of mice, Day 4 [2, 4]: 19.30 ± 0.85 g
weight loss rate on Day 4 after administration ([2]; Day 4, G4 350 mg/kg, G5 325 mg/kg, G7 250 mg/kg, single IP): less than 10%
Weight change rate, Day 6 [2, 5]: −1.16 ± 2.31%
Weight of mice, Day 6 [2, 5]: 20.82 ± 0.81 g
Weight change rate, Day 8 [2, 6]: 2.81 ± 1.37%
Weight of mice, Day 8 [2, 6]: 21.63 ± 0.62 g
Weight change rate, Day 11 [2, 7]: 4.96 ± 1.42%
Weight of mice, Day 11 [2, 7]: 22.07 ± 0.49 g
Weight change rate, Day 13 [2, 8]: 7.84 ± 1.39 %
Weight of mice, Day 13 [2, 8]: 22.67 ± 0.45 g
Weight change rate, Day 15 [2, 9]: 6.31 ± 1.39 %
Weight of mice, Day 15 [2, 9]: 22.35 ± 0.49 g
Weight change rate, Day 18 [2, 10]: 8.28 ± 1.61 %
Weight of mice, Day 18 [2, 10]: 22.75 ± 0.38 g
Weight change rate, Day 20 [2, 11]: 9.18 ± 1.65 %
Weight of mice, Day 20 [2, 11]: 22.95 ± 0.50 g
Weight change rate, Day 22 [2, 12]: 10.41 ± 2.03%
Weight of mice, Day 22 [2, 12]: 23.20 ± 0.47 g
Day 22 Mortality ([2]; Day 22, single IP dose (mg/kg)): 0%
body weight compared with model control group ([2]; G4 Day 18 to Day 20 (p<0.05), G5 Day 13 to Day 20 (p<0.05~0.01)): significantly increased
clinical symptoms ([2]; after single IP dose, compared with model control group): no significant differences in clinical symptoms
